The values that follow come from patent publication US10865208B2, “ATG7 inhibitors and the uses thereof” (Millennium Pharmaceuticals, Inc., priority 2016, dated 2020).

Where only a bound is given, the exact number is not on record here.

The target of the assay is recombinant human His-ATG7 enzyme (Homo sapiens (Human), UniProt O95352). Briefly: ATG7 Enzyme Assay (HTRF/FRET, ATG3-GST and Flag-Gabarap). Format: biochemical. Particulars: for inhibition at 0.123 µM: Concentration 0.123 μM; for inhibition at 0.123 µM / inhibition at 0.111 µM: read-out: Percent Inhibition; for inhibition at 0.111 µM: Concentration 0.111 μM. The method, boiled down:
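HTRF read-out after 2 h at 24° C, using Eu-cryptate anti-Flag and XL-APC anti-GST antibodies in an EDTA stop buffer. The preceding 105 min, 24° C reaction (pH 7.5) held 10 μM ATP, 5 nM each ATG3-GST and Flag-Gabarap, and 0.15 nM human His-ATG7. Values are IC50 or percent inhibition at one concentration.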

Sequence of recombinant human His-ATG7 enzyme (O95352 whole entry): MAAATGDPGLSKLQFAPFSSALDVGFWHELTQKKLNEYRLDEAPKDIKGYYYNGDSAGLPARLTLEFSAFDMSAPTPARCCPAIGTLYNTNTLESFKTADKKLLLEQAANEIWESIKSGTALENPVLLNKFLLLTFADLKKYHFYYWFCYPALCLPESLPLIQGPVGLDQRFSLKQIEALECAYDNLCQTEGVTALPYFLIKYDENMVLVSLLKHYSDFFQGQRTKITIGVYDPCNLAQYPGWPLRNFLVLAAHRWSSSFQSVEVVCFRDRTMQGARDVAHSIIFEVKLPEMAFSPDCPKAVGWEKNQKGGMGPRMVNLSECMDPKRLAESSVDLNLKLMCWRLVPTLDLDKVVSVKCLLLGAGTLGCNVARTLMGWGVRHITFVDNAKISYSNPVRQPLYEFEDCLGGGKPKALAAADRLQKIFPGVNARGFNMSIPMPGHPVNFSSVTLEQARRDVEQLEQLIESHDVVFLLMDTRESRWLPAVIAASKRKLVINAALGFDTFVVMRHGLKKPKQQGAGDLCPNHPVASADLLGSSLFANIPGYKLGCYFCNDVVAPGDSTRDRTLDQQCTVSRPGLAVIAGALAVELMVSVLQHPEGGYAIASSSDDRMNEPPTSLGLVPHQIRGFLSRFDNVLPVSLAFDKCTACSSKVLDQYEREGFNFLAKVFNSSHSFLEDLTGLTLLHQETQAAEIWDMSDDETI

Turning to `Nc1ncnc2c1c(SCC1(O)CCCCC1)nn2[C@@H]1O[C@H](COS(N)(=O)=O)[C@@H](O)[C@H]1O` [Compound I-86, [(2R,3S,4R,5R)-5-(4-amino-3-{[(1-hydroxycyclohexyl)methyl]sulfanyl}-1H-pyrazolo[3,4-d]pyrimidin-1-yl)-3,4-dihydroxytetrahydrofuran-2-yl]methyl Sulfamate], the IC50 (commonly the concentration that inhibits the measured activity by half) fell in the range of 50 to 100 nM and the inhibition (in general, the change of the read-out against control, counted positive when it falls) at 0.123 µM is 64%.

With `C[S+]([O-])c1nn([C@@H]2O[C@H](COS(N)(=O)=O)[C@@H](O)[C@H]2O)c2ncnc(N)c12` (stereo partly drawn) [Compound I-87, {(2R,3S,4R,5R)-5-[4-amino-3-(methylsulfinyl)-1H-pyrazolo[3,4-d]pyrimidin-1-yl]-3,4-dihydroxytetrahydrofuran-2-yl}methyl Sulfamate], the IC50 fell in the range of 50 to 100 nM and the inhibition at 0.123 µM worked out at 58%.

Turning to `Nc1ncnc2c1c(SCCc1ccccc1)nn2[C@@H]1O[C@H](COS(N)(=O)=O)[C@@H](O)[C@H]1O` [Compound I-88, [(2R,3S,4R,5R)-5-{4-amino-3-[(2-phenylethyl)sulfanyl]-1H-pyrazolo[3,4-d]pyrimidin-1-yl}-3,4-dihydroxytetrahydrofuran-2-yl]methyl sulfamate], the IC50 fell in the range of 20 to 50 nM and the inhibition at 0.123 µM turned out to be 78%.

Take `Cc1ccc(Sc2nn([C@@H]3O[C@H](COS(N)(=O)=O)[C@@H](O)[C@H]3O)c3ncnc(N)c23)cc1` [Compound I-89, [(2R,3S,4R,5R)-5-{4-amino-3-[(4-methylphenyl)sulfanyl]-1H-pyrazolo[3,4-d]pyrimidin-1-yl}-3,4-dihydroxytetrahydrofuran-2-yl]methyl sulfamate]: the IC50 is below 20 nM and the inhibition at 0.111 µM is 86%.

`N#CCSc1nn([C@@H]2O[C@H](COS(N)(=O)=O)[C@@H](O)[C@H]2O)c2ncnc(N)c12` [Compound I-90, [(2R,3S,4R,5R)-5-{4-amino-3-[(cyanomethyl)sulfanyl]-1H-pyrazolo[3,4-d]pyrimidin-1-yl}-3,4-dihydroxytetrahydrofuran-2-yl]methyl sulfamate]: the IC50 was 20 to 50 nM and the inhibition at 0.123 µM came out at 84%.

Turning to `Nc1ncnc2c1c(SCC1=CCCCC1)nn2[C@@H]1O[C@H](COS(N)(=O)=O)[C@@H](O)[C@H]1O` [Compound I-91, [(2R,3S,4R,5R)-5-{4-amino-3-[(cyclohex-1-en-1-ylmethyl)sulfanyl]-1H-pyrazolo[3,4-d]pyrimidin-1-yl}-3,4-dihydroxytetrahydrofuran-2-yl]methyl Sulfamate], the half-maximal inhibitory concentration (IC50) is 20 to 50 nM and the inhibition at 0.123 µM worked out at 76%.

As to `CC1OCCC1Sc1nn([C@@H]2O[C@H](COS(N)(=O)=O)[C@@H](O)[C@H]2O)c2ncnc(N)c12` (some centres unmarked) [Compound I-92], the 50% inhibitory concentration (IC50) fell in the range of 100 to 500 nM and the inhibition at 0.123 µM was 50%.

`CSCc1nn([C@@H]2O[C@H](COS(N)(=O)=O)[C@@H](O)[C@H]2O)c2ncnc(N)c12` [Compound I-93, [(2R,3S,4R,5R)-5-{4-amino-3-[(methylsulfanyl)methyl]-1H-pyrazolo[3,4-d]pyrimidin-1-yl}-3,4-dihydroxytetrahydrofuran-2-yl]methyl Sulfamate]: the IC50 fell in the range of 100 to 500 nM and the inhibition at 0.123 µM was determined as 47%.

`CSc1nn([C@@H]2O[C@@H](COS(N)(=O)=O)[C@@H](O)[C@H]2O)c2ncnc(N)c12` [Compound I-94, {(2S,3S,4R,5R)-5-[4-amino-3-(methylsulfanyl)-1H-pyrazolo[3,4-d]pyrimidin-1-yl]-3,4-dihydroxytetrahydrofuran-2-yl}methyl Sulfamate]: the IC50 is 100 to 500 nM and the inhibition at 0.111 µM turned out to be 28%.

As for `CC(C)Sc1nn([C@@H]2O[C@@H](COS(N)(=O)=O)[C@@H](O)[C@H]2O)c2ncnc(N)c12` [Compound I-95, {(2S,3S,4R,5R)-5-[4-amino-3-(isopropylsulfanyl)-1H-pyrazolo[3,4-d]pyrimidin-1-yl]-3,4-dihydroxytetrahydrofuran-2-yl}methyl Sulfamate], the IC50 lay within 100 to 500 nM and the inhibition at 0.123 µM was 47%.
